Paper PMC7413516, “Antidepressant-like activity and safety profile evaluation of 1H-imidazo[2,1-f]purine-2,4(3H,8H)-dione derivatives as 5-HT1A receptor partial agonists” (PLoS ONE, 2020)
“And” between values parts separate entries of the source, which are not always exact repeats. Identical values can stand only once. Like-named read-outs stand apart in the source and are kept apart here.

Test: Pharmacokinetic study in mice, plasma and brain structures, LC/MS/MS
Assay type: in vivo, Swiss albino mice
Details: 0.625 mg/kg i.p.; for Kp: ratio of AUC values
Procedure: Blood samples from the Swiss albino mice were collected at 0 (pre-dose), 5, 15, 30, 60, 120, 240 and 480 min after a compound administration. The blood samples and brain structures were collected under general anesthesia induced by i.p. injection of 50 mg/kg ketamine plus 8 mg/kg xylazine. The blood samples were taken into heparinized tubes, immediately centrifuged at 1000 × g for 10 min, and plasma was collected. The plasma samples and brain structures were immediately frozen at -30°C and -80°C, respectively.
The plasma and tissue sample pretreatment procedure involved acetonitrile precipitation. A 5 μL aliquot of the IS working solution (100 ng/mL) was added to 50 μL of the collected mouse plasma sample, which was then vortex-mixed for 10 seconds. Thereafter, 200 μL of acetonitrile was added, vortexed during 20 min, and then centrifuged (1000 × g, 10 min). The supernatant (100 μL) was then transferred to insert placed in an autosampler vial, and a 10 μL volume of this was injected onto the HPLC column. Tissue samples were thawed before use, and whole hippocampus, striatum and frontal cortex were weighted and placed in a glass mortar and pestle tissue grinder and homogenized with an appropriate amount of phosphate buffer (pH 7.4) in 1:5 ratio. Afterward, 50 μL of tissue homogenates were transferred to new Eppendorf tubes and spiked with 5 μL of the internal standard working solution. All samples were stored on ice during the preparation process. This was followed by procedures like those described above.
The LC/ESI-MS/MS experiments were performed on an Applied Biosystems/MDS Sciex (Concord, Ontario, Canada) API 2000 triple quadrupole mass spectrometer equipped with an electrospray (ESI) ionization interface. This instrument was coupled to an Agilent 1100 (Agilent Technologies, Waldbronn, Germany) LC system. Data acquisition and processing were accomplished using Sciex Analyst 1.4.2 data collection and integration software.
An XBridge C18 (2.1 x 30 mm, 3.5 μm) analytical column (Waters, Milford, Massachusetts, USA) was used for compound separation. The temperatures of the column thermostat and the autosampler were set at 25°C and 10°C, respectively. The mobile phase consisted of a mixture of acetonitrile with addition of 0.1% formic acid (solvent A) and water with addition of 0.1% formic acid (solvent B) and was set at a flow rate of 0.6 mL/min. Starting amount of solvent A is 10%, isocratic elution from 0 to 3 min, and then gradient up to 90% of solvent A, and maintained to 10 min, and then gradient down to 10% of solvent A, and maintained to 15 min.
The ion source parameters were as follows: ion spray voltage: 5500 V; nebulizer gas (gas 1): 20 psi; turbo gas (gas 2): 25 psi; temperature of the heated nebulizer: 400°C; curtain gas: 40 psi; collision gas: 6 psi. Mass spectra were acquired by SRM with precursor/predominant product ion transitions for each analyte. The mass spectral Q1→Q3 transitions monitored for AZ-853, AZ-861 and for IS (nebivolol), were m/z 453.9→235.1; 504.3→285.1 and 406.2→151.1, respectively. The peak widths of precursor and product ions were set to 0.7 full width half-height. Quantification was done via peak area ratio.
Pharmacokinetic parameters were calculated by a non-compartmental approach from the average concentration values, using Phoenix WinNonlin software (Certara, Princeton, NJ 08540 USA). First order elimination rate constant (λz) was calculated by linear regression of time versus log concentration. Next, the area under the mean serum and tissue concentration versus time curve (AUC0→t) was estimated using the log-linear trapezoidal rule (1), where Ci is the plasma concentration measured at t1.
AUC0→t=∑i=1n((Ci+Ci+1)/2)∙(ti+1−ti). (1)
Area under the first-moment curve (AUMC0→t) was estimated by calculation of the total area under the first-moment curve using the Eq (2), where Ci is the plasma concentration measured at t1. AUMC0→t=∑i=1n((ti∙Ci+ti+1∙Ci+1)/2)∙(ti+1−ti). […]

[1] = Swiss albino, mouse, frontal cortex, ip, 0.625 mg/kg, read-out: Concentration, frontal cortex (Mean)
[2] = Swiss albino, mouse, frontal cortex, ip, 0.625 mg/kg, read-out: Concentration, frontal cortex (individual animals)

- t0.5: ca. 1.5 h
- t0.5, frontal cortex: 73.8 min
- t0.5, hippocampus: 140.8 min
- t0.5, striatum: 74.3 min
- Cmax, plasma (0.625 mg/kg): 23.1 ng/mL
- t0.5, plasma (0.625 mg/kg): 81 min and 81.6 min
- Kp (Swiss albino, mouse, frontal cortex, ip, read-out: Brain structure-to-plasma concentration ratio, frontal cortex (FC/P)): 18.1
- AUC(0-t) (Swiss albino, mouse, frontal cortex, ip, read-out: AUC0→t, frontal cortex (converted)): 321 ng·h/mL
- MRT (Swiss albino, mouse, frontal cortex, ip, read-out: MRT, frontal cortex (converted)): 1.5 h
- concentration at 5 min [1]: 306 ng/mL
- concentration at 5 min [2]: 268 ng/mL
- concentration at 15 min (Swiss albino, mouse, frontal cortex, ip, 0.625 mg/kg, 15 min, read-out: Concentration, frontal cortex (Mean)): 293 ng/mL
- concentration at 15 min (Swiss albino, mouse, frontal cortex, ip, 0.625 mg/kg, 15 min, read-out: Concentration, frontal cortex (individual animals)): 318 ng/mL
- concentration at 30 min (Swiss albino, mouse, frontal cortex, ip, 0.625 mg/kg, 30 min, read-out: Concentration, frontal cortex (Mean)): 156 ng/mL
- concentration at 30 min (Swiss albino, mouse, frontal cortex, ip, 0.625 mg/kg, 30 min, read-out: Concentration, frontal cortex (individual animals)): 165 ng/mL
- concentration at 60 min (Swiss albino, mouse, frontal cortex, ip, 0.625 mg/kg, 60 min, read-out: Concentration, frontal cortex (Mean)): 66 ng/mL
- concentration at 60 min (Swiss albino, mouse, frontal cortex, ip, 0.625 mg/kg, 60 min, read-out: Concentration, frontal cortex (individual animals)): 56.3 ng/mL
- concentration at 120 min (Swiss albino, mouse, frontal cortex, ip, 0.625 mg/kg, 120 min, read-out: Concentration, frontal cortex (Mean)): 27.5 ng/mL
- concentration at 120 min (Swiss albino, mouse, frontal cortex, ip, 0.625 mg/kg, 120 min, read-out: Concentration, frontal cortex (individual animals)): 22.2 ng/mL
- concentration at 240 min (Swiss albino, mouse, frontal cortex, ip, 0.625 mg/kg, 240 min, read-out: Concentration, frontal cortex (Mean)): 23.3 ng/mL
- concentration at 240 min (Swiss albino, mouse, frontal cortex, ip, 0.625 mg/kg, 240 min, read-out: Concentration, frontal cortex (individual animals)): 20.8 ng/mL
- concentration at 480 min [1]: 14.6 ng/mL
- concentration at 480 min [2]: 18.6 ng/mL
- Cmax (Swiss albino, mouse, frontal cortex, ip, 0.625 mg/kg, read-out: Cmax, frontal cortex): 306 ng/g
- Tmax (Swiss albino, mouse, frontal cortex, ip, 0.625 mg/kg, read-out: tmax, frontal cortex (converted)): 5 min
- Kp (Swiss albino, mouse, hippocampus, ip, read-out: Brain structure-to-plasma concentration ratio, hippocampus (H/P)): 11.9
- AUC(0-t) (Swiss albino, mouse, hippocampus, ip, read-out: AUC0→t, hippocampus (converted)): 210 ng·h/mL
- MRT (Swiss albino, mouse, hippocampus, ip, read-out: MRT, hippocampus (converted)): 1.19 h
- concentration at 5 min (Swiss albino, mouse, hippocampus, ip, 0.625 mg/kg, read-out: Concentration, hippocampus (Mean)): 191 ng/mL
SMILES: Cn1c(=O)c2c(nc3n(CCCCN4CCN(c5ccccc5F)CC4)ccn23)n(C)c1=O [AZ-853, 8-(4-(4-(2-fluorophenyl)piperazin-1-yl)butyl)-1,3-dimethyl-1H-imidazo[2,1-f]purine-2,4(3H,8H)-dione]
- Concentration, frontal cortex (individual animals) (15 min, 0.625 mg/kg): 252.14 ng/mL and 309.85 ng/mL and 312.66 ng/mL and 273.19 ng/mL and 294.14 ng/mL
- Concentration, hippocampus (individual animals) (15 min, 0.625 mg/kg): 298.87 ng/mL and 267.61 ng/mL and 299.52 ng/mL and 245.78 ng/mL and 289.53 ng/mL
- Concentration, plasma (individual animals) (15 min, 0.625 mg/kg): 13.52 ng/mL and 11.72 ng/mL and 14.74 ng/mL and 12.63 ng/mL and 15.85 ng/mL
- Concentration, striatum (individual animals) (15 min, 0.625 mg/kg): 445.83 ng/mL and 472.52 ng/mL and 361.97 ng/mL and 346.18 ng/mL and 398.36 ng/mL
- Concentration, frontal cortex (individual animals) (30 min, 0.625 mg/kg): 130.57 ng/mL and 174.17 ng/mL and 183.87 ng/mL and 124.72 ng/mL and 156.16 ng/mL
- Concentration, hippocampus (individual animals) (30 min, 0.625 mg/kg): 132.11 ng/mL and 120.56 ng/mL and 144.33 ng/mL and 115.85 ng/mL and 113.92 ng/mL
- Concentration, plasma (individual animals) (30 min, 0.625 mg/kg): 7.23 ng/mL and 6.19 ng/mL and 8.12 ng/mL and 7.41 ng/mL and 8.48 ng/mL
- Concentration, striatum (individual animals) (30 min, 0.625 mg/kg): 208.14 ng/mL and 240.54 ng/mL and 302.57 ng/mL and 256.75 ng/mL and 253.77 ng/mL
- Concentration, frontal cortex (individual animals) (60 min, 0.625 mg/kg): 87.55 ng/mL and 56.45 ng/mL and 81.65 ng/mL and 55.78 ng/mL and 58.24 ng/mL
- Concentration, hippocampus (individual animals) (60 min, 0.625 mg/kg): 35.33 ng/mL and 56.52 ng/mL and 54.16 ng/mL and 46.72 ng/mL and 33.91 ng/mL
- Concentration, plasma (individual animals) (60 min, 0.625 mg/kg): 2.33 ng/mL and 1.80 ng/mL and 1.95 ng/mL and 1.94 ng/mL and 1.84 ng/mL and 0.83 ng/mL
- Concentration, striatum (individual animals) (60 min, 0.625 mg/kg): 49.55 ng/mL and 56.86 ng/mL and 68.93 ng/mL and 73.14 ng/mL and 66.26 ng/mL
- Concentration, frontal cortex (individual animals) (120 min, 0.625 mg/kg): 32.55 ng/mL and 33.75 ng/mL and 20.15 ng/mL and 30.26 ng/mL and 26.34 ng/mL
- Concentration, hippocampus (individual animals) (120 min, 0.625 mg/kg): 15.62 ng/mL and 13.22 ng/mL and 11.37 ng/mL and 10.24 ng/mL and 11.13 ng/mL
- Concentration, plasma (individual animals) (120 min, 0.625 mg/kg): 4.86 ng/mL and 4.58 ng/mL and 4.97 ng/mL and 3.54 ng/mL and 3.31 ng/mL
- Concentration, striatum (individual animals) (120 min, 0.625 mg/kg): 39.45 ng/mL and 31.62 ng/mL and 38.75 ng/mL and 47.66 ng/mL and 39.13 ng/mL
- Concentration, frontal cortex (individual animals) (240 min, 0.625 mg/kg): 24.26 ng/mL and 26.65 ng/mL and 19.77 ng/mL and 20.56 ng/mL
- Concentration, hippocampus (individual animals) (240 min, 0.625 mg/kg): 6.95 ng/mL and 9.12 ng/mL and 10.23 ng/mL and 6.87 ng/mL
- Concentration, plasma (individual animals) (240 min, 0.625 mg/kg): 0.37 ng/mL and 0.35 ng/mL and 0.45 ng/mL and 0.53 ng/mL and 0.33 ng/mL and 0.26 ng/mL
- Concentration, striatum (individual animals) (240 min, 0.625 mg/kg): 2.35 ng/mL and 3.41 ng/mL and 6.93 ng/mL and 8.25 ng/mL and 6.34 ng/mL
